Assay results published in patent US9062124B2, “GIP-based mixed agonists for treatment of metabolic disorders and obesity” (priority 2008, dated 2015).
Where a SMILES comes first, the peptide text is derived from it. Bridges are numbered along the chain shown (N, C = ends). Where no end group is shown, it is not given here. [ ]: non-standard residue; d: D form. PEG 40 kDa = PEG (40 kDa) covalently attached to Cys; C18 acyl = 18 carbon fatty acyl group; Aib = CC(C)(N)C(=O)O

Key:
Assay type in all cases: cell-based
[1] = biological target: T1, GLP-1 receptor (Homo sapiens, UniProt P43220); assay: cAMP synthesis functional assay (firefly luciferase reporter in HEK293 cells), GLP-1 receptor; settings: Table 1; relative to the native hormone of the indicated receptor
T1 construct: expressed in transfected cells; host or cells: HEK293
T1 sequence (P43220 24-463, species assumed): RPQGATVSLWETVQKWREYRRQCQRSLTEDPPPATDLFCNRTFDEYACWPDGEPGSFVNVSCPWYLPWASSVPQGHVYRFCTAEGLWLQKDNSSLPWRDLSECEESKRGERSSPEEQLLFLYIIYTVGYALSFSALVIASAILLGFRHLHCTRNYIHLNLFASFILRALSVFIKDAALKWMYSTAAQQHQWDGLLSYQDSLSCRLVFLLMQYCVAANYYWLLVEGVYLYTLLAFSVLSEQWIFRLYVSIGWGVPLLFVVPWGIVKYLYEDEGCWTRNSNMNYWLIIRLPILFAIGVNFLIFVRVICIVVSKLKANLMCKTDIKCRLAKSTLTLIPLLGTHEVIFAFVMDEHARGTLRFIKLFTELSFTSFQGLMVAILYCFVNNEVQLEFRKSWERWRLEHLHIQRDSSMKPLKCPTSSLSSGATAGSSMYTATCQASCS

[2] = test system: glucagon receptor, GLP-1 receptor or GIP receptor; assay: Agonist profile across receptors assigned from the cAMP reporter assay data; settings: assigned from the in vitro EC50 data of Tables 1-4
[3] = biological target: T2, glucagon receptor (Homo sapiens, UniProt P47871); assay: cAMP synthesis functional assay (firefly luciferase reporter in HEK293 cells), glucagon receptor; settings: Table 1; relative to the native hormone of the indicated receptor
T2 construct: expressed in transfected cells; host or cells: HEK293
T2 sequence (P47871 26-477): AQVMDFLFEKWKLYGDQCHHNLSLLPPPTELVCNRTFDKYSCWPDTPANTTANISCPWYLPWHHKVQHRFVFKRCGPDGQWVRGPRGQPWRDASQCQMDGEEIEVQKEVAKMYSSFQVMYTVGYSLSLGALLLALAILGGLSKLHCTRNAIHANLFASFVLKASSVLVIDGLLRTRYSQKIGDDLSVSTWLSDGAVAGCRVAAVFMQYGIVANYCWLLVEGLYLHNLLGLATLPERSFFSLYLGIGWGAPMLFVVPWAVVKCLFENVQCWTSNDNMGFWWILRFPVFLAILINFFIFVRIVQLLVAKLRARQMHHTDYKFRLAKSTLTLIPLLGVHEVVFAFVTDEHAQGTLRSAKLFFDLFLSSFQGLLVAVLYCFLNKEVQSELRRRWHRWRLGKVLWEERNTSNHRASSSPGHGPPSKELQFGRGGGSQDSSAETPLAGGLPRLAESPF

[4] = biological target: T3, GIP receptor (Homo sapiens, UniProt P48546); assay: cAMP synthesis functional assay (firefly luciferase reporter in HEK293 cells), GIP receptor; settings: Table 1; relative to the native hormone of the indicated receptor
T3 construct: expressed in transfected cells; host or cells: HEK293
T3 sequence (P48546 22-466): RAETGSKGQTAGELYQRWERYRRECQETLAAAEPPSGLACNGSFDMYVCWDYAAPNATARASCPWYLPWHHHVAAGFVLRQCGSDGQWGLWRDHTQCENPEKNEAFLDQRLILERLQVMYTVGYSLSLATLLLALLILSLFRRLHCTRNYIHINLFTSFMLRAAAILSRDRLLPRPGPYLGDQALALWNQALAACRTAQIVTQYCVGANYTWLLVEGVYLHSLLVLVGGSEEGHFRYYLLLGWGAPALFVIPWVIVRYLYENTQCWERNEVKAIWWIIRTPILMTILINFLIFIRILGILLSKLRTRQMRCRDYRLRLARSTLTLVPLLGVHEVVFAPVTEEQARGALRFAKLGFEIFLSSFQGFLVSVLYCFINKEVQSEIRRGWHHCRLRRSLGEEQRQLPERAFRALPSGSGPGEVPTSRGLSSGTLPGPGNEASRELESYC

Molecule	GLP-1 Receptor relative activity [1]	receptor activity profile (glucagon / GLP-1 / GIP agonism) [2]	Glucagon Receptor relative activity [3]	GIP Receptor relative activity [4]
CC[C@H](C)[C@@H]1NC(=O)[C@@H](NC(=O)[C@H](CC(=O)O)NC(=O)[C@H](CC(C)C)NC(=O)[C@H](Cc2ccc(O)cc2)NC(=O)[C@H](CCCCN)NC(=O)[C@H](CO)NC(=O)[C@H](Cc2ccc(O)cc2)NC(=O)[C@H](CC(=O)O)NC(=O)[C@H](CO)NC(=O)[C@@H](NC(=O)[C@H](Cc2ccccc2)NC(=O)[C@@H](NC(=O)CNC(=O)[C@H](CCC(N)=O)NC(=O)[C@H](CO)NC(=O)[C@@H](N)Cc2ccc(O)cc2)[C@@H](C)O)[C@@H](C)O)CCC(=O)NCCCC[C@@H](C(=O)N[C@@H](CC(=O)O)C(=O)N[C@@H](Cc2ccccc2)C(=O)N[C@H](C(=O)N[C@@H](CC(N)=O)C(=O)N[C@@H](Cc2c[nH]c3ccccc23)C(=O)N[C@@H](CC(C)C)C(=O)N[C@@H](CC(C)C)C(=O)N[C@@H](C)C(=O)NCC(=O)NCC(=O)N2CCC[C@H]2C(=O)N[C@@H](CO)C(=O)N[C@@H](CO)C(=O)NCC(=O)N[C@@H](C)C(=O)N2CCC[C@H]2C(=O)N2CCC[C@H]2C(=O)N2CCC[C@H]2C(=O)N[C@@H](CO)C(N)=O)C(C)C)NC(=O)[C@H](CCC(N)=O)NC(=O)[C@H](Cc2c[nH]cn2)NC1=O [mt-116] (H-YSQGTFTSDYSKYLDEIHQKDFVNWLLAGGPSSGAPPPS-NH2; lactam 16-20; N-terminus assumed)	1.07%	exemplary GIP/glucagon co-agonist peptides	18.68%	7.62%
CC[C@H](C)[C@H](NC(=O)[C@H](CO)NC(=O)[C@H](Cc1ccc(O)cc1)NC(=O)[C@H](CC(=O)O)NC(=O)[C@H](CO)NC(=O)[C@@H](NC(=O)[C@H](Cc1ccccc1)NC(=O)[C@@H](NC(=O)CNC(=O)[C@H](CCC(N)=O)NC(=O)[C@H](CO)NC(=O)[C@@H](N)Cc1ccc(O)cc1)[C@@H](C)O)[C@@H](C)O)C(=O)N[C@@H](Cc1ccc(O)cc1)C(=O)N[C@@H](CC(C)C)C(=O)N[C@@H](CC(=O)O)C(=O)N[C@H]1CCC(=O)NCCCC[C@@H](C(=O)N[C@@H](CCC(=O)O)C(=O)N[C@@H](Cc2ccccc2)C(=O)N[C@H](C(=O)N[C@@H](CC(N)=O)C(=O)N[C@@H](Cc2c[nH]c3ccccc23)C(=O)N[C@@H](CC(C)C)C(=O)N[C@@H](CC(C)C)C(=O)N[C@@H](C)C(=O)NCC(=O)NCC(=O)N2CCC[C@H]2C(=O)N[C@@H](CO)C(=O)N[C@@H](CO)C(=O)NCC(=O)N[C@@H](C)C(=O)N2CCC[C@H]2C(=O)N2CCC[C@H]2C(=O)N2CCC[C@H]2C(=O)N[C@@H](CO)C(N)=O)C(C)C)NC(=O)[C@H](C)NC(=O)[C@H](C)NC(=O)[C@H](CCC(N)=O)NC1=O [mt-140] (H-YSQGTFTSDYSIYLDEQAAKEFVNWLLAGGPSSGAPPPS-NH2; lactam 16-20; N-terminus assumed)	49.56%	exemplary GLP-1/GIP/glucagon triagonist peptides	131.15%	12.85%
mt-310: acylated version of mt-274: C-terminal Lys with C18 fatty acyl group, 40 kDa PEG on Cys at position 24 (Y[Aib]EGTFTSDYSIYLDKQAA[Aib]EFVC(PEG 40 kDa)WLLAGGPSSGAPPPSK(C18 acyl)-NH2)	–	exhibited activity at the GIP, GLP-1, and glucagon receptors	–	–
